Reference: patent publication US20080107619A1, “Carbohydrate based cellulase inhibitors as feeding stimulants in termites” (University of Florida Research Foundation, Inc., priority 2006, published 2008)

Assays:
Type in all cases: biochemical, R. flavipes
Settings in all cases: foregut/salivary gland/midgut (endogenous) and hindgut (symbiotic) fractions, FIG. 4
exoglucanase = assay: In vitro exoglucanase inhibition, pNPC assay (I50 determination)
Description: (§1) Gut dissections were carried out for cellulase distribution and inhibition studies. For dissections, termites were immobilized on ice, decapitated, and the entire digestive tract removed through a small incision made in the abdominal exoskeleton. For cellulase distribution studies, dissected guts were divided into three regions: (i) salivary gland+foregut, (ii) midgut and (iii) hindgut. For inhibition studies, guts were divided into two major components that included: (i) foregut, salivary gland and midgut, and (ii) hindgut. […]
(§2) Cellulase activity assays were adapted from Han et al. in “Characterization of a bifunctional cellulase and its structural gene,” J. Biol. Chem. 270 (1995) 26012-26019, with optimization for a 96-well microplate format. […] Color was allowed to develop on ice for 15 min before measuring absorbance at 540 nm relative to a glucose standard curve.
(§3) The hydrolysis product of both the pNPC and pNPG substrates is p-nitrophenol, which is yellow in color and permits for direct quantification of activity in a kinetic assay. pNPC and pNPG assays were initially incubated at 32° C. for 20 min before measuring the release of the product, p-nitrophenol, at 420 nm. The absorbance of reactions was read every 2 min for 1 hr and activity was determined based on rate of absorbance change. […]

endoglucanase = assay: In vitro endoglucanase inhibition, CMC assay (I50 determination)
Description: as §1, §2
The efficacy of the three carbohydrate-based cellulase inhibitors CBI (FIG. 1D), FMG (FIG. 1E) and FMCB (FIG. 1F) was tested against two different gut enzyme sources that included (i) endogenous termite cellulases from salivary gland, foregut and midgut, and (ii) symbiotic cellulases from the hindgut. […] Percent inhibition was calculated relative to methanol controls. […]

β-glucosidase = assay: In vitro β-glucosidase inhibition, pNPG assay (I50 determination)
Description: as §1, §2, §3

Row | Compound | I50 against exoglucanase activity (exoglucanase) | I50 against endoglucanase activity (endoglucanase) | I50 against β-glucosidase activity (β-glucosidase)
1 | OC[C@@H]1[C@@H](O[C@@H]2O[C@H](CO)[C@@H](O)[C@H](O)[C@H]2O)[C@H](O)[C@@H](O)c2nccn21 [CBI, cellobioimidazole] | I50s in the nM-μM range | virtually no activity | I50s in the nM-μM range
2 | fluoromethyl glucose [FMG] | virtually no inhibitory properties | virtually no inhibitory properties | virtually no inhibitory properties
